The record followed here is patent US9839642B2, “Beta-tetrazolyl-propionic acids as metallo-beta-lactamase inhibitors” (priority 2014, dated 2017).

Read-outs that look alike come from different tables or passages of the source. Bounds are passed on as bounds.

By IC50 is commonly meant the point on the concentration scale where inhibition reaches its midpoint.

Test [1] relates to Serratia marcescens expressing IMP-1 (CL5741). In words: Antibiotic potentiation activity: synergistic concentration (MITC95) with imipenem, growth by OD600. It counts as cell-based. Conditions: S. marcescens CL5741 (IMP-1), 95% inhibition of growth. The method in brief:
(§1)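 Strains grown overnight at 35° C, resuspended in saline, diluted 1:100 into 1.1×CAMHB; imipenem at 1 μg/ml or 4 μg/ml with test compound 200 μM to 0.195 μM. Incubated 22 hours to 24 hours at 35° C, OD600 read; MITC95 is lowest compound concentration inhibiting 95% of growth.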

For test [2], the system named is Klebsiella pneumoniae expressing VIM-1 (IHMA599644). The test is described as above. It counts as cell-based. To be noted: K. pneumoniae IHMA599644 (VIM-1), 95% inhibition of growth. The essentials: as §1
Test [3] relates to Escherichia coli expressing NDM-1 (CLB30016). The test is described as above. To be noted: E. coli CLB30016 (NDM-1), 95% inhibition of growth. The test is classed as cell-based. The method in brief:
as §1

A further test concerns the target NDM-1 (Klebsiella pneumoniae, UniProt C7C422). In words: Enzyme activity: determination of IC50, fluorescence assay with CCF2-FA substrate. The test is classed as biochemical. Conditions: CCF2-FA 1.25 μM, 2 hours at 25° C. The method in brief:
(§2)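 Enzyme (1 pM NDM-1, 2 pM IMP-1, 30 pM VIM-1) incubated with inhibitor (20 to 0.00063 μM) and 1.25 μM CCF2-FA in 100 mM KH2PO4 pH 7, 0.005% Tween-20, 10 μM ZnSO4, 2 h at 25 °C. Fluorescence read at 460 nm (ex 405 nm); IC50 by 4-parameter fit.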

A further test addresses VIM-1 (Pseudomonas aeruginosa, UniProt A0A0F7KYQ8). The description is as above. To be noted: VIM-1 enzyme 30 pM, CCF2-FA 1.25 μM, 2 hours at 25° C.; read-out: VIM1 IC50. The test is classed as biochemical. The method in brief:
as §2

A further test concerns the target IMP-1 (Serratia marcescens, UniProt P52699). Described as above. It counts as biochemical. To be noted: IMP-1 enzyme 2 pM, CCF2-FA 1.25 μM, 2 hours at 25° C.; read-out: IMP1 IC50. The method in brief: as §2
Where [4] appears, read: NDM-1 enzyme 1 pM, read-out: NDM1 IC50.

Chain of IMP-1 (P52699 19-246, looked up, species assumed): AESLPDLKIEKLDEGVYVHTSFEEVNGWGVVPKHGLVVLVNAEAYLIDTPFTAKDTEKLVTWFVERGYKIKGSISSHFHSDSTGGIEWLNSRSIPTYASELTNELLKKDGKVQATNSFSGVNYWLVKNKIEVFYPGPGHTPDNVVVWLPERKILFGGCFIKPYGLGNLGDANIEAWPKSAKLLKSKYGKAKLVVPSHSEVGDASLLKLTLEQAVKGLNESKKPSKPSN
Chain of NDM-1 (C7C422 29-270, looked up, species assumed): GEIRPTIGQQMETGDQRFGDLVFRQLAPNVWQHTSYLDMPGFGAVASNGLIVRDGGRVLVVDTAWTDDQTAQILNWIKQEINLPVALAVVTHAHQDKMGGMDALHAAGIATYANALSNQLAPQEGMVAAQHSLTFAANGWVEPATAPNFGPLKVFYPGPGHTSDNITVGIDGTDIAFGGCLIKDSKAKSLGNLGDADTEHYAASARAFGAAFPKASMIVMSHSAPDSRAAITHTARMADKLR

On to `CCC[C@H](C(=O)O)[C@H](Cc1ccc(C(=O)N2CCC(N)CC2)cc1)c1nnn[nH]1` [Example 278, (2S)-2-[(1S)-2-{4-[(4-aminopiperidin-1-yl)carbonyl]phenyl}-1-(1H-tetrazol-5-yl)ethyl]pentanoic acid], for which, in test [1], the “IMP1 SM5741 MITC95” value came to 6.2 µM. Also, the “VIM1 KP599644 MITC95” value in test [2] was 50 µM. Further, the “NDM1 EC30016 MITC95” value in test [3] came to 12.5 µM. Also, the concentration for half-maximal inhibition (IC50) on NDM-1 (setting [4]) was 10 nM; at VIM-1 it was 120 nM; at IMP-1, 200 nM.
With `CCC[C@H](C(=O)O)[C@H](Cc1ccc(C(=O)NC)cc1)c1nnn[nH]1` [Example 279, (2S)-2-[(1S)-2-[4-(methylcarbamoyl)phenyl]-1-(1H-tetrazol-5-yl)ethyl]pentanoic acid], in test [1], the “IMP1 SM5741 MITC95” value was >200 µM. Besides, the “VIM1 KP599644 MITC95” value in test [2] was >200 µM. Moreover, in test [3], the “NDM1 EC30016 MITC95” value worked out at 150 µM. Moreover, the IC50 at NDM-1 (setting [4]) came to 1000 nM; on VIM-1, 100 nM; at IMP-1, 9500 nM.
On to `CCC[C@H](C(=O)O)[C@H](Cc1ccc(C(=O)NCCO)cc1)c1nnn[nH]1` [Example 280, (2S)-2-[(1S)-2-{4-[(2-hydroxyethyl)carbamoyl]phenyl}-1-(1H-tetrazol-5-yl)ethyl]pentanoic acid], for which the “IMP1 SM5741 MITC95” value in test [1] was 25 µM. In addition, the “VIM1 KP599644 MITC95” value in test [2] is 25 µM. In addition, in test [3], the “NDM1 EC30016 MITC95” value stood at 18.8 µM. Also, the half-maximal inhibitory concentration (IC50) at NDM-1 (setting [4]) amounted to 140 nM; at VIM-1 it was 2.7 nM; at IMP-1, 880 nM.
Take `CCC[C@H](C(=O)O)[C@H](Cc1ccc(C(=O)NC2CC2)cc1)c1nnn[nH]1` [Example 281, (2S)-2-[(1S)-2-[4-(cyclopropylcarbamoyl)phenyl]-1-(1H-tetrazol-5-yl)ethyl]pentanoic acid]: the “IMP1 SM5741 MITC95” value in test [1] stood at 200 µM. In test [2], the “VIM1 KP599644 MITC95” value stood at 200 µM. Further, in test [3], the “NDM1 EC30016 MITC95” value worked out at 100 µM. The values for the IC50 on NDM-1 (setting [4]), at VIM-1 and on IMP-1 were 770 nM, 86 nM and 5300 nM, respectively.
Take `CCC[C@H](C(=O)O)[C@H](Cc1ccc(C(=O)NCC2CC2)cc1)c1nnn[nH]1` [Example 282, (2S)-2-[(1S)-2-{4-[(cyclopropylmethyl)carbamoyl]phenyl}-1-(1H-tetrazol-5-yl)ethyl]pentanoic acid]: the “IMP1 SM5741 MITC95” value in test [1] amounted to 50 µM. In test [2], the “VIM1 KP599644 MITC95” value came to 50 µM. For the same molecule, the “NDM1 EC30016 MITC95” value in test [3] was 18.8 µM. In addition, the half-inhibitory concentration (IC50) on NDM-1 (setting [4]) was determined as 98 nM; on VIM-1, 19 nM; on IMP-1, 730 nM.
With `CCC[C@H](C(=O)O)[C@H](Cc1ccc(C(=O)O)cc1)c1nn[nH]n1` [Example 283, 4-((2S,3S)-3-carboxy-2-(2H-tetrazol-5-yl)hexyl)benzoic acid], the “IMP1 SM5741 MITC95” value in test [1] was found to be 38 µM. For the same molecule, the “VIM1 KP599644 MITC95” value in test [2] was 200 µM. In addition, the “NDM1 EC30016 MITC95” value in test [3] was found to be 100 µM. The half-inhibitory concentration (IC50) was 50 nM at NDM-1 (setting [4]), 17 nM at VIM-1 and 850 nM at IMP-1.
Turning to `CCC[C@H](C(=O)O)[C@H](Cc1nnc(N)s1)c1nnn[nH]1` [Example 284, (S)-2-((S)-2-(5-amino-1,3,4-thiadiazol-2-yl)-1-(1H-tetrazol-5-yl)ethyl)pentanoic acid], in test [1], the “IMP1 SM5741 MITC95” value is >200 µM. Besides, the “VIM1 KP599644 MITC95” value in test [2] came out at 38 µM. Besides, the “NDM1 EC30016 MITC95” value in test [3] stood at 25 µM. Besides, the IC50 at NDM-1 (setting [4]) was 13000 nM; on VIM-1, 340 nM; at IMP-1, > 20000 nM.
For `CCC[C@H](C(=O)O)[C@H](Cc1cnc(SC)nc1)c1nnn[nH]1` [Example 285, (S)-2-((S)-2-(2-(methylthio)pyrimidin-5-yl)-1-(1H-tetrazol-5-yl)ethyl)pentanoic acid], the “IMP1 SM5741 MITC95” value in test [1] was >200 µM. The “VIM1 KP599644 MITC95” value in test [2] was 25 µM. Further, in test [3], the “NDM1 EC30016 MITC95” value is 25 µM. The values for the IC50 at NDM-1 (setting [4]), on VIM-1 and on IMP-1 were 190 nM, 3.3 nM and 14000 nM, respectively.
As to `CCC[C@H](C(=O)O)[C@H](Cc1cnc(S(C)(=O)=O)nc1)c1nnn[nH]1` [Example 286, (S)-2-((S)-2-(2-(methylsulfonyl)pyrimidin-5-yl)-1-(1H-tetrazol-5-yl)ethyl)pentanoic acid], in test [1], the “IMP1 SM5741 MITC95” value was >200 µM. In addition, in test [2], the “VIM1 KP599644 MITC95” value amounted to 18.8 µM. In test [3], the “NDM1 EC30016 MITC95” value amounted to 25 µM. Further, the half-inhibitory concentration (IC50) was 4600 nM at NDM-1 (setting [4]), 37 nM at VIM-1 and > 20000 nM at IMP-1.
Turning to `CCC[C@H](C(=O)O)[C@H](Cc1cnc(N2CCOCC2)nc1)c1nnn[nH]1` [Example 287, (S)-2-((S)-2-(2-morpholinopyrimidin-5-yl)-1-(1H-tetrazol-5-yl)ethyl)pentanoic acid], in test [1], the “IMP1 SM5741 MITC95” value amounted to 75 µM. The “VIM1 KP599644 MITC95” value in test [2] stood at 50 µM. In test [3], the “NDM1 EC30016 MITC95” value was 25 µM. Also, the IC50 on NDM-1 (setting [4]) turned out to be 100 nM; on VIM-1, 5 nM; on IMP-1 it was 9200 nM.
In the case of `CCC[C@H](C(=O)O)[C@H](Cc1cnc(N2CCNCC2)nc1)c1nnn[nH]1` [Example 288, (S)-2-((S)-2-(2-(piperazin-1-yl)pyrimidin-5-yl)-1-(1H-tetrazol-5-yl)ethyl)pentanoic acid], the “IMP1 SM5741 MITC95” value in test [1] is 150 µM. The “VIM1 KP599644 MITC95” value in test [2] came out at 12.5 µM. For the same molecule, the “NDM1 EC30016 MITC95” value in test [3] was found to be 12.5 µM. Further, the half-maximal inhibitory concentration (IC50) against NDM-1 (NDM1 IC50, NDM-1 enzyme 1 pM) was 520 nM; on VIM-1, 4.1 nM; on IMP-1, > 20000 nM.
On to `CCC[C@H](C(=O)O)[C@H](Cc1cnc(OC2CCNCC2)nc1)c1nnn[nH]1` [Example 289, (S)-2-((S)-2-(2-(piperidin-4-yloxy)pyrimidin-5-yl)-1-(1H-tetrazol-5-yl)ethyl)pentanoic acid], for which, in test [1], the “IMP1 SM5741 MITC95” value is >200 µM. Also, in test [2], the “VIM1 KP599644 MITC95” value was 38 µM. Besides, the “NDM1 EC30016 MITC95” value in test [3] was found to be 25 µM. Besides, the IC50 on NDM-1 (setting [4]) was 3100 nM; on VIM-1 it was 6.8 nM; on IMP-1, > 20000 nM.
With `CCC[C@H](C(=O)O)[C@H](Cc1cnc(N(C)C)nc1)c1nnn[nH]1` [Example 290, (S)-2-((S)-2-(2-(dimethylamino)pyrimidin-5-yl)-1-(1H-tetrazol-5-yl)ethyl)pentanoic acid], the “IMP1 SM5741 MITC95” value in test [1] worked out at 150 µM. For the same molecule, in test [2], the “VIM1 KP599644 MITC95” value turned out to be 38 µM. Moreover, in test [3], the “NDM1 EC30016 MITC95” value was 18.8 µM. For the same molecule, the IC50 on NDM-1 (setting [4]) worked out at 110 nM; at VIM-1 it was 2.1 nM; on IMP-1 it was 14000 nM.
On to `CCC[C@H](C(=O)[O-])[C@H](Cc1ccc(C2CC[N+](C)(C)CC2)nc1)c1nnn[nH]1` [Example 291, (S)-2-((S)-2-(6-(1,1-dimethylpiperidin-1-ium-4-yl)pyridin-3-yl)-1-(1H-tetrazol-5-yl)ethyl)pentanoate], for which the “IMP1 SM5741 MITC95” value in test [1] worked out at 50 µM. Further, the “VIM1 KP599644 MITC95” value in test [2] turned out to be 38 µM. Also, in test [3], the “NDM1 EC30016 MITC95” value turned out to be 3.1 µM. In addition, the values for the IC50 on NDM-1 (setting [4]), on VIM-1 and on IMP-1 were 650 nM, 120 nM and 6500 nM, respectively.
